In patent publication US20240002376A1, “COMPOSITIONS AND METHODS FOR G-PROTEIN-COUPLED RECEPTOR 44 DETECTION” (City of Hope, priority 2020, published 2024):
Entries after “also recorded” stand apart in the source; their conditions may differ.

What was measured:
Assay type in all cases: in vivo
human islets = assay: Biodistribution in NOD/SCID mice with human islets transplanted into kidney capsule; details: 500 IEQ human islets in kidney capsule
Procedure: (§1) Preliminary studies confirmed that the human beta-like 1.1B4 cells express GPR44. However, it was not clear if the radiotracer would localize to these cells in living animals. We performed a biodistribution study in NOD/SCID mice post 3 weeks following implantation of 1.1B4 cells. The blocking agent was cold Ab-1. At 30 minutes post-injection, the mice with/without blocking agent were euthanized and organs were collected. […] For mice with transplanted study, 500 IEQ human islets were transplanted into NOD/SCID mice kidney capsule. We also performed the biodistribution study in the mice with human islets (FIG. 9). […] Ab-1. Further, [^18F]

[1] = Biodistribution of 18F GPR44 radioligand in healthy NOD/SCID mice
Procedure: Bio-distribution analysis over time of a unique ^18F GPR44 radioligand in healthy NOD/SCID mice. The biodistribution of [^18F] Ab-1 was investigated in health NOD/SCID mice. The mice were administered doses of the radiotracer i.v. through the tail vein under general anesthesia. At 30, 60, and 90 minutes post-injection, mice were euthanized. The blood, lung, heart, liver, spleen, stomach, small and large intestines, muscle, kidney, pancreas and bone were collected, weighed, and radioactivity counted. […] We also injected cold unlabeled Ab-1, as a blocking agent, and collected the organs at 30 minutes post-injection. Organ uptake varied little from results obtained in mice given the radiotracer.

GPR44+1.1B4 cells = assay: Biodistribution in NOD/SCID mice implanted with human beta-like 1.1B4 cells
Procedure: as §1

CN(C1CCc2c(c3ccccc3n2CC(=O)O)C1)S(=O)(=O)c1ccc([18F])cc1 (centres unmarked) [[^18F] Ab-1]
specific binding to human islets (human islets): high specific binding | uptake in human islets (human islets): significant uptake; also recorded: accumulated | specific binding in murine tissues ([1]; blocking with cold Ab-1): no specific binding | uptake in the murine pancreas ([1]; i.v. tail vein, 30, 60 and 90 minutes post-injection): minimal uptake | uptake in the liver ([1]; i.v. tail vein, 30, 60 and 90 minutes post-injection, radioactivity counted): Prominent uptake | uptake in the kidneys ([1]; i.v. tail vein, 30, 60 and 90 minutes post-injection, relative to liver): much less so | organ uptake with cold unlabeled Ab-1 as blocking agent versus radiotracer alone ([1]; organs collected 30 minutes post-injection): varied little | effect of blocking agent cold Ab-1 on uptake in 1.1B4 cells (GPR44+1.1B4 cells; 30 minutes post-injection): decreased by cold Ab-1 | uptake in other organs before or after administration of cold Ab-1 (GPR44+1.1B4 cells; 30 minutes post-injection): not different | uptake in implanted 1.1B4 cells (GPR44+1.1B4 cells; 30 minutes post-injection, 3 weeks after implantation): highest uptake; also recorded: accumulated | binding to GPR44+1.1B4 cells (GPR44+1.1B4 cells; in vivo, blocking with cold Ab-1): specifically binds
